Data published in US20100074975A1, “Pharmaceutical composition for the prevention and treatment of liver disease comprising a lonicera caerulea L. Var. Edulis extract” (priority 2005, published 2010).

Tests used:
HepG2 cells [1] = details: 48 hrs
Protocol: HepG2 cells were seeded in a 96-well plate at a density of 1×10^4 cells per well and incubated in a culture medium supplemented with 10% FBS for 16 hrs. After the 96-well plate was washed with physiological saline, ethyl alcohol, which was diluted in a culture medium in amounts of 0, 0.5, 1.0, 1.5 and 2.0% (v/v), was added to each well in which HepG2 cells were cultured. After incubation for 48 hrs, the cell number in each well was measured using a SRB method.
The culture medium was removed, and the 96-well plate was washed with physiological saline. The cells in each well were then fixed with 70% acetone for 20 min. The fixed cells were dried, stained with an SRB solution for 30 min, and washed with a 1% acetic acid solution five times to eliminate unbound SRB. After the cells were dried again, 10 mM Tris was added to the cells to dissolve cellular proteins and unbound SRB, and absorbance was measured at 562 nm using a spectrophotometer. The results were expressed as a percentage by comparing the absorbance of each well treated with ethyl alcohol with that of a control well not treated with ethyl alcohol (FIG. 2).

HepG2 cells [2] = test: Restoration of growth of cells whose growth is suppressed by ethyl alcohol (SRB method); type: cell-based, human; details: HepG2, 1.5% ethyl alcohol for 24 hrs
Protocol: After the 96-well plate was washed with physiological saline, ethyl alcohol, which was diluted in culture medium in 1.5% (v/v), was added to each well in which HepG2 cells were cultured. Cell damage was induced using ethyl alcohol for 24 hrs. Thereafter, the culture medium containing ethyl alcohol was removed, and the extract from L. caerulea fruits, which was diluted in culture medium in amounts of 0, 0.125, 0.25, 0.5 and 1 mg/ml, was added to each well. […] Cells in each well were then fixed with 70% acetone for 20 min. […] The absorbance of a well treated with ethyl alcohol alone and the absorbance of each well treated with alcohol plus the extract from L. caerulea fruits were compared with that of a control well which was not treated with ethyl alcohol or with the extract from L. caerulea fruits (FIG. 3).
The reduced absorbance increased in a manner that was dependent on the concentrations of the extract from L. caerulea fruits when the extract was administered at up to 0.5 mg/ml to the well treated with ethyl alcohol.
Thus, the degree of restoration of ethyl alcohol-induced cell growth damage by administration of the extract from L. caerulea fruits was calculated according to Equation 1, and the results are given in Table 1, below. […]

CCO [ethyl alcohol]
effect on cell number (HepG2 cells [1]; HepG2, ethyl alcohol at concentrations of 1.5% or higher): reduced cell number
effect on cell growth (HepG2 cells [1]; HepG2, ethyl alcohol at concentrations of up to 1% (v/v)): stimulate cell growth
absorbance reduced in comparison with the well not treated with ethyl alcohol (HepG2 cells [2]): 22%
